Data reported in patent US20050171353A1, “Piperidine or 8-aza-bicyclo[3.2.1]oct-3-yl derivatives useful as modulators of chemokine receptor activity (especially ccr5)” (priority 2002, published 2005).

Target: recombinant human CCR5 receptor (Homo sapiens, UniProt P51681)
Test: in vitro radioligand binding assay (inhibition of binding of RANTES or MIP-1α), scintillation proximity
Conditions: membranes from Chinese hamster ovary cells expressing recombinant human CCR5; 0.1 nM iodinated RANTES or MIP-1α; average if tested more than once
Description: The ability of compounds to inhibit the binding of RANTES or MIP-1α was assessed by an in vitro radioligand binding assay. Membranes were prepared from Chinese hamster ovary cells which expressed the recombinant human CCR5 receptor. These membranes were incubated with 0.1 nM iodinated RANTES or MIP-1α, scintillation proximity beads and various concentrations of the compounds of the invention in 96-well plates. The amount of iodinated RANTES or MIP-1α bound to the receptor was determined by scintillation counting.
In Table IV the results are presented as Pic50 values.

Chain of recombinant human CCR5 receptor (P51681 whole entry): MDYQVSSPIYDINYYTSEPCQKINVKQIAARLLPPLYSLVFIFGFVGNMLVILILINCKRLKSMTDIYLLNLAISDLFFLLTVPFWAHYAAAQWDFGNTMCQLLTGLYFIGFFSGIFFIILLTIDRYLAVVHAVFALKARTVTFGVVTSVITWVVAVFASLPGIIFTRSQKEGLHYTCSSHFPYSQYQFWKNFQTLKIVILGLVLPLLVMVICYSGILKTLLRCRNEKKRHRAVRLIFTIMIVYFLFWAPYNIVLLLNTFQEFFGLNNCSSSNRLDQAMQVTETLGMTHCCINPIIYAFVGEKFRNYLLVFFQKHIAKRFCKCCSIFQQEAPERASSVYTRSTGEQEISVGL

Molecule | Pic50 | IC50 [nM]
CCN(C(=O)Cc1ccc(S(C)(=O)=O)cc1)C1CCN(CC[C@H](NC(=O)C2CCC(F)(F)CC2)c2ccccc2)CC1 [Table 1 Compound 1, (S)—N-[1-(3-phenyl-3-[4,4-difluorocyclohexylcarboxyamino]propyl)-4-piperidinyl]-N-ethyl-4-methanesulfonylphenylacetamide] | 8.95 | –
CCN(C(=O)Cc1ccc(S(C)(=O)=O)cc1)C1CCN(CC[C@H](NC(=O)N2CCC(F)CC2)c2ccccc2)CC1 [Table 1 Compound 2, (S)—N-[1-(3-phenyl-3-[4-fluoropiperidin-1-ylcarboxyamino]propyl)-4-piperidinyl]-N-ethyl-4-methanesulfonylphenylacetamide] | 7.68 | –
CCN(C(=O)Cc1ccc(S(C)(=O)=O)cc1)C1CCN(CC[C@H](NC(=O)N2CC[C@@H](F)C2)c2ccccc2)CC1 [Table 1 Compound 3, (S)—N-[1-(3-Phenyl-3-[(R)-3-fluoropyrrolidin-1-ylcarboxyamino]propyl)-4-piperidinyl]-N-ethyl4-methanesulfonylphenylacetamide] | 7.76 | –
CCN(C(=O)Cc1ccc(S(C)(=O)=O)cc1)[C@@H]1C[C@H]2CC[C@@H](C1)N2CC[C@H](NC(=O)C1CCC(F)(F)CC1)c1ccccc1 [Table 2 Compound 1, (S)-4,4-difluoro-cyclohexanecarboxylic acid[3-(3-{ethyl-[2-(4-methanesulfonyl-phenyl)-acetyl]-amino}-8-aza-bicyclo[3.2.1]oct-8-yl-exo)-1-phenyl-propyl]-amide] | – | 3.31
(S)—N-[1-(3-[3,5-Difluorophenyl]-3-[3,3-difluorocyclobutylcarboxyamino]propyl)-4-piperidinyl]-N-ethyl-4-methanesulfonylphenylacetamide hydrochloride [Table 1 Compound 6] | 8.65 | –
N-[1-((4S)-4-Phenyl-4-[3,3-difluorocyclobutylcarboxyamino]but-2-yl)-4-piperidinyl]-N-ethyl-4-methanesulfonylphenylacetamide hydrochloride [Table 3 Compound 8] | 9.15 | –
